Test results published in PubChem BioAssay (NCI).
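Assay format: 96-well plates, 48-hour exposure. Here, GI50 denotes the concentration required for 50% inhibition of growth. The concentration for full growth arrest is given as TGI.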

Assays:
Experiment in all cases: NCI tumour cell line growth inhibition, 48 h
OVCAR-5 ovarian = tested on: OVCAR-5 ovarian
T-47D breast = tested on: T-47D breast
EKVX NSCLC = tested on: EKVX NSCLC
SK-OV-3 ovarian = tested on: SK-OV-3 ovarian
NCI-H226 lung = tested on: NCI-H226 lung
SN12C renal = tested on: SN12C renal
UACC-257 melanoma = tested on: UACC-257 melanoma
SR leukemia = tested on: SR leukemia
786-0 renal = tested on: 786-0 renal
A498 renal = tested on: A498 renal
OVCAR-3 ovarian = tested on: OVCAR-3 ovarian
MOLT-4 leukemia = tested on: MOLT-4 leukemia
SF-539 CNS = tested on: SF-539 CNS
RPMI-8226 leukemia = tested on: RPMI-8226 leukemia
A549 NSCLC = tested on: A549 NSCLC
ACHN renal = tested on: ACHN renal
COLO 205 colon = tested on: COLO 205 colon
MALME-3M melanoma = tested on: MALME-3M melanoma
HOP-92 NSCLC = tested on: HOP-92 NSCLC
HCC-2998 colon = tested on: HCC-2998 colon
SW-620 colon = tested on: SW-620 colon
U251 CNS = tested on: U251 CNS
OVCAR-8 ovarian = tested on: OVCAR-8 ovarian
MDA-MB-435 = tested on: MDA-MB-435
IGROV1 ovarian = tested on: IGROV1 ovarian
KM12 colon = tested on: KM12 colon
MCF7 breast = tested on: MCF7 breast
NCI-H460 lung = tested on: NCI-H460 lung
HCT-116 colon = tested on: HCT-116 colon

COc1ccc(/C=N/NC(=O)c2[nH]c3ccc(Br)cc3c2-c2ccccc2)o1 showed a GI50 (OVCAR-5 ovarian) of 161 nM, a TGI (OVCAR-5 ovarian) of 17600 nM and a GI50 (T-47D breast) of 2950 nM. It also gave a TGI (T-47D breast) of 20600 nM, a GI50 (EKVX NSCLC) of 968 nM and a TGI (EKVX NSCLC) of 29400 nM. The GI50 (SK-OV-3 ovarian) was 455 nM, the TGI (SK-OV-3 ovarian) was 40200 nM and the GI50 (NCI-H226 lung) was 276 nM. The TGI (NCI-H226 lung) was 7950 nM, the GI50 (SN12C renal) was 125 nM and the TGI (SN12C renal) was 8310 nM. For the same molecule, the GI50 (UACC-257 melanoma) was 258 nM, the TGI (UACC-257 melanoma) was 23200 nM and the GI50 (SR leukemia) was 114 nM. It also gave a TGI (SR leukemia) of 19100 nM, a GI50 (786-0 renal) of 353 nM and a TGI (786-0 renal) of 13700 nM. For the same molecule, the GI50 (A498 renal) was 16700 nM, the TGI (A498 renal) was 37300 nM and the GI50 (OVCAR-3 ovarian) was 284 nM. It also gave a TGI (OVCAR-3 ovarian) of 2840 nM, a GI50 (MOLT-4 leukemia) of 59.9 nM and a TGI (MOLT-4 leukemia) of 21900 nM. For the same molecule, the GI50 (SF-539 CNS) was 72 nM, the TGI (SF-539 CNS) was 237 nM and the GI50 (RPMI-8226 leukemia) was 161 nM. For the same molecule, the TGI (RPMI-8226 leukemia) was greater than 32500 nM, the GI50 (A549 NSCLC) was 251 nM and the TGI (A549 NSCLC) was greater than 49900 nM. For the same molecule, the GI50 (ACHN renal) was 203 nM, the TGI (ACHN renal) was 20700 nM and the GI50 (COLO 205 colon) was 196 nM. It also gave a TGI (COLO 205 colon) of 377 nM, a GI50 (MALME-3M melanoma) of 202 nM and a TGI (MALME-3M melanoma) of 17700 nM. For the same molecule, the GI50 (HOP-92 NSCLC) was 953 nM, the TGI (HOP-92 NSCLC) was 10100 nM and the GI50 (HCC-2998 colon) was 382 nM. The TGI (HCC-2998 colon) was 14300 nM, the GI50 (SW-620 colon) was 196 nM and the TGI (SW-620 colon) was 28300 nM. It also gave a GI50 (U251 CNS) of 309 nM, a TGI (U251 CNS) of 11000 nM and a GI50 (OVCAR-8 ovarian) of 143 nM. It also gave a TGI (OVCAR-8 ovarian) of 1570 nM, a GI50 (MDA-MB-435) of 112 nM and a TGI (MDA-MB-435) of 303 nM. It also gave a GI50 (IGROV1 ovarian) of 314 nM, a TGI (IGROV1 ovarian) of 16700 nM and a GI50 (KM12 colon) of 311 nM. The TGI (KM12 colon) was 4840 nM, the GI50 (MCF7 breast) was 90.7 nM and the TGI (MCF7 breast) was 11100 nM. For the same molecule, the GI50 (NCI-H460 lung) was 248 nM, the TGI (NCI-H460 lung) was 1590 nM and the GI50 (HCT-116 colon) was 108 nM. For the same molecule, the TGI (HCT-116 colon) was 1100 nM.
